PubChem BioAssay (NCI)
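The concentration for 50% growth inhibition is given as GI50. The concentration for full growth arrest is given as TGI.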

How the values were obtained:
Test in all cases: DTP human tumour cell line panel, 384-well format; in the data active means GI50 below about 0.43 µM; inactive means the rest
UO-31 renal = system: UO-31 renal
ACHN renal = system: ACHN renal
SN12C renal = system: SN12C renal
MDA-MB-468 breast = system: MDA-MB-468 breast
MDA-MB-231 breast = system: MDA-MB-231 breast
SF-539 CNS = system: SF-539 CNS
NCI-H226 lung = system: NCI-H226 lung
HOP-62 NSCLC = system: HOP-62 NSCLC
SK-OV-3 ovarian = system: SK-OV-3 ovarian
M14 melanoma = system: M14 melanoma
A498 renal = system: A498 renal
CCRF-CEM leukemia = system: CCRF-CEM leukemia
SF-295 CNS = system: SF-295 CNS
HCC-2998 colon = system: HCC-2998 colon
IGROV1 ovarian = system: IGROV1 ovarian
HT29 colon = system: HT29 colon
NCI/ADR-RES ovarian = system: NCI/ADR-RES ovarian
COLO 205 colon = system: COLO 205 colon
SNB-19 CNS = system: SNB-19 CNS
HS 578T breast = system: HS 578T breast
SF-268 CNS = system: SF-268 CNS
MALME-3M melanoma = system: MALME-3M melanoma
LOX IMVI melanoma = system: LOX IMVI melanoma
SK-MEL-28 melanoma = system: SK-MEL-28 melanoma
T-47D breast = system: T-47D breast
SK-MEL-5 melanoma = system: SK-MEL-5 melanoma
RPMI-8226 leukemia = system: RPMI-8226 leukemia
HCT-15 colon = system: HCT-15 colon
EKVX NSCLC = system: EKVX NSCLC
A549 NSCLC = system: A549 NSCLC
MDA-MB-435 melanoma = system: MDA-MB-435 melanoma
MCF7 breast = system: MCF7 breast
NCI-H23 lung = system: NCI-H23 lung
BT-549 breast = system: BT-549 breast
NCI-H522 lung = system: NCI-H522 lung
UACC-62 melanoma = system: UACC-62 melanoma
PC-3 prostate = system: PC-3 prostate
RXF 393 renal = system: RXF 393 renal
MOLT-4 leukemia = system: MOLT-4 leukemia
HOP-92 NSCLC = system: HOP-92 NSCLC
OVCAR-4 ovarian = system: OVCAR-4 ovarian
SW-620 colon = system: SW-620 colon
SR leukemia = system: SR leukemia
OVCAR-5 ovarian = system: OVCAR-5 ovarian
SNB-75 CNS = system: SNB-75 CNS
UACC-257 melanoma = system: UACC-257 melanoma
K-562 leukemia = system: K-562 leukemia
NCI-H322M lung = system: NCI-H322M lung
NCI-H460 NSCLC = system: NCI-H460 NSCLC
TK-10 renal = system: TK-10 renal
HL-60(TB) leukemia = system: HL-60(TB) leukemia
DU-145 prostate = system: DU-145 prostate
KM12 colon = system: KM12 colon
CAKI-1 renal = system: CAKI-1 renal
OVCAR-8 ovarian = system: OVCAR-8 ovarian
786-0 renal = system: 786-0 renal
OVCAR-3 ovarian = system: OVCAR-3 ovarian

CCOCCOC[C@H]1CCCN(c2ccnc3sc(C(N)=O)c(N)c23)C1
inactive: GI50 (UO-31 renal) > 100 µM | GI50 (ACHN renal) 44.9 µM | GI50 (SN12C renal) > 100 µM | GI50 (MDA-MB-468 breast) 1340 nM | GI50 (MDA-MB-231 breast) 82.3 µM | GI50 (SF-539 CNS) > 100 µM | GI50 (NCI-H226 lung) 90.9 µM | GI50 (HOP-62 NSCLC) 18.5 µM | GI50 (SK-OV-3 ovarian) 17.6 µM | GI50 (M14 melanoma) > 100 µM | GI50 (A498 renal) 13.9 µM | GI50 (CCRF-CEM leukemia) 1430 nM | GI50 (SF-295 CNS) 59.3 µM | GI50 (HCC-2998 colon) > 100 µM | GI50 (IGROV1 ovarian) 29.6 µM | GI50 (HT29 colon) > 100 µM | GI50 (NCI/ADR-RES ovarian) 3.53 µM | GI50 (COLO 205 colon) 61.6 µM | GI50 (SNB-19 CNS) > 100 µM | GI50 (HS 578T breast) > 100 µM | GI50 (SF-268 CNS) > 100 µM | GI50 (MALME-3M melanoma) > 100 µM | GI50 (LOX IMVI melanoma) 16.9 µM | GI50 (SK-MEL-28 melanoma) > 100 µM | GI50 (T-47D breast) 2230 nM | GI50 (SK-MEL-5 melanoma) 2560 nM | GI50 (RPMI-8226 leukemia) 499 nM | GI50 (HCT-15 colon) > 100 µM | GI50 (EKVX NSCLC) 35.1 µM | GI50 (A549 NSCLC) > 100 µM | GI50 (MDA-MB-435 melanoma) > 100 µM | GI50 (MCF7 breast) 23 µM | GI50 (NCI-H23 lung) 7.19 µM | GI50 (BT-549 breast) 79.1 µM | GI50 (NCI-H522 lung) 5.77 µM | GI50 (UACC-62 melanoma) 35.6 µM | GI50 (PC-3 prostate) 55.1 µM | GI50 (RXF 393 renal) 12.9 µM | GI50 (MOLT-4 leukemia) 3.13 µM | GI50 (HOP-92 NSCLC) > 100 µM | GI50 (OVCAR-4 ovarian) 34.1 µM | GI50 (SW-620 colon) > 100 µM | GI50 (SR leukemia) 1070 nM | GI50 (OVCAR-5 ovarian) > 100 µM | GI50 (SNB-75 CNS) > 100 µM | GI50 (UACC-257 melanoma) 61.1 µM | GI50 (K-562 leukemia) 4.6 µM | GI50 (NCI-H322M lung) 13.4 µM | GI50 (NCI-H460 NSCLC) 11.4 µM | GI50 (TK-10 renal) > 100 µM | GI50 (HL-60(TB) leukemia) 13.5 µM | GI50 (DU-145 prostate) > 100 µM | GI50 (KM12 colon) 46.7 µM | GI50 (CAKI-1 renal) > 100 µM | GI50 (OVCAR-8 ovarian) 15.2 µM | GI50 ([…]-0 renal) 43.9 µM | GI50 (OVCAR-3 ovarian) 23.8 µM
27.6 µM: TGI (NCI/ADR-RES ovarian)
7.04 µM: TGI (MDA-MB-468 breast)
14.4 µM: TGI (RPMI-8226 leukemia)
11.2 µM: TGI (CCRF-CEM leukemia)
> 100 µM: TGI (UO-31 renal) | TGI (ACHN renal) | TGI (SN12C renal) | TGI (MDA-MB-231 breast) | TGI (SF-539 CNS) | TGI (NCI-H226 lung) | TGI (HOP-62 NSCLC) | TGI (SK-OV-3 ovarian) | TGI (M14 melanoma) | TGI (A498 renal) | TGI (SF-295 CNS) | TGI (HCC-2998 colon) | TGI (IGROV1 ovarian) | TGI (HT29 colon) | TGI (COLO 205 colon) | TGI (SNB-19 CNS) | TGI (HS 578T breast) | TGI (SF-268 CNS) | TGI (MALME-3M melanoma) | TGI (LOX IMVI melanoma) | TGI (SK-MEL-28 melanoma) | TGI (HCT-15 colon) | TGI (EKVX NSCLC) | TGI (A549 NSCLC) | TGI (MDA-MB-435 melanoma) | TGI (MCF7 breast) | TGI (NCI-H23 lung) | TGI (BT-549 breast) | TGI (NCI-H522 lung) | TGI (UACC-62 melanoma) | TGI (PC-3 prostate) | TGI (RXF 393 renal) | TGI (HOP-92 NSCLC) | TGI (OVCAR-4 ovarian) | TGI (SW-620 colon) | TGI (OVCAR-5 ovarian) | TGI (SNB-75 CNS) | TGI (UACC-257 melanoma) | TGI (K-562 leukemia) | TGI (NCI-H322M lung) | TGI (NCI-H460 NSCLC) | TGI (TK-10 renal) | TGI (DU-145 prostate) | TGI (KM12 colon) | TGI (CAKI-1 renal) | TGI (OVCAR-8 ovarian) | TGI (786-0 renal) | TGI (OVCAR-3 ovarian)
67.4 µM: TGI (T-47D breast)
63.8 µM: TGI (HL-60(TB) leukemia)
23.1 µM: TGI (MOLT-4 leukemia)
3.5 µM: TGI (SR leukemia)
18.1 µM: TGI (SK-MEL-5 melanoma)
